Literature values as cited in patent US20050158845A1 (priority 2001, published 2005).

Tested on: human hepatocyte and neuroblastoma cells
Conditions: cited from earlier work

CCOP(=S)(OCC)Oc1ccc([N+](=O)[O-])cc1 [parathion]
effects on hepatocyte and neuroblastoma cell metabolism: opposite effects

CCOP(=O)(OCC)Oc1ccc([N+](=O)[O-])cc1 [paraoxon]
effects on hepatocyte and neuroblastoma cell metabolism: opposite effects
